The record followed here is US5719296A, “Pseudopeptide lactam inhibitors of peptide binding to MHC class II proteins” (Merck & Co., Inc., priority 1996, dated 1998).

Like-named read-outs stand apart in the source and are kept apart here.

This assay has as its target T1, DR1Dw1 (Homo sapiens, UniProt P01903+P01911, A100R/D57E/F55L/F60I/F76Y/I96L/L162R/M171V/P40L/Q125E/R42F/V115G/Y59C).
T1 construct: these are Drosophila transmembrane DR; made in house; host or cells: Drosophila (cells)
Kind of assay: Inhibition assay: inhibition of biotinylated RMBP 90-102 peptide binding to MHC class II DR1. As to the method: For direct binding assays, optimal concentrations of affinity purified DR1Dwl (1.25 nM) or DR4Dw4 (10 nM) are incubated with serial dilutions of biotinylated rat myelin basic protein (RMBP) 90-102 in PBS (phosphate buffered saline) containing 0.75% octyl glucoside, pH 6.5, in 96-well polypropylene plates for 16 to 20 h at 37° C. In studies optimizing the assay it was determined that only between 5 to 10% of the DR molecules are capable of binding added peptide. Therefore, the effective concentration of DR1Dw1 and DR4Dw4 was approximately 0.125 and 1.0 nM, respectively. […] The DR-peptide complexes (50 μL) are transferred to wells of a 96-well EIA plate precoated with LB3.1, the monoclonal antibody which recognizes the DR alleles of MHC Class II, and blocked with PBS with fetal calf serum (FCS). An additional 50 μL of 50 mM Tris, pH 7.0, containing 0.75% octyl glucoside is added to each well and the mixture incubated overnight at 4° C. Excess peptide is removed by washing with PBS containing 0.05% Tween 20 (Polyoxyethylene sorbitan monolaurate) and 0.01% NAN3. Europium-labeled streptavidin (Wallac Inc.) is added and incubated overnight. After washing, complexes are measured by the addition of Enhance™ buffer, the tradename for 0.1 M acetate phthalate buffer, pH 3.2, containing 0.1% Triton X-100, tradename for polyoxyethylene ethers and other surface active compounds of Union Carbide Chemicals and Plastics Co., Inc. (particularly, a non-ionic surfactant for recovery of membrane components under non-denaturing conditions) 15 µM 2-naphthoyltrifluoroacetone, and 50 μM tri-N-octylphosphine oxide, which buffer releases the chelated europium from streptavidin and forms a highly fluorescent micellar solution. The resultant fluorescence is measured using a fluorescent plate reader (e.g., DELPHIA, Wallac, Inc.). The data are analyzed using a four-parameter logistical curve […] program (e.g., SigmaPlot) that calculates the concentration of biotinylated peptide giving a half-maximal signal (ED50).
The inhibition assay format is identical to the procedure described above with the exception that the unlabeled antagonist is serially diluted and incubated with constant concentrations of biotinylated RMBP 90-102 (0.3 nM for DR1Dw1 or 0.9 nM for DR4Dw4) and the MHC class II proteins. The concentration of unlabeled compound that prevents 50% of the labeled peptide from binding is the IC50 value. The concentration of the biotinylated RMBP 90-102 in each assay is experimentally determined to be […] one-sixth of its measured ED50 to assure the inhibition was primarily measuring the binding characteristics of the competitor.
In particular, a protocol for carrying out the inhibition assay is given below.
Preparation of Antibody Plate
Add 115 μL of 5 μg/mL LB3.1 in 50 mM Tris HCl pH 9.6/azide to each well of a Costar EIA plate. Incubate the plate overnight at 4° C.
Wash the plate 4 times with water/0.05% Tween-20/azide. Add 200 μL of PBS/5% FCS/azide for 1 hour at 4° C. to block the plate. The plate may be held at this point for later use or used immediately.
Flip out the block. It is not necessary to wash the plate. At 50 μL of load buffer (50 mM Tris HCl, pH 8.0 0.75% octylglucoside). Add to this volume 50 μL of the reaction mix from day 2, step 3 below.
Preparation of Reaction Mixture
(1) Add the following to a polypropylene round bottom 96-well plate such as a Costar #3794:
(A) Diluent (Ca Mg free PBS adjusted to pH 6.5 with 0.1 M KH2 PO4/0.75% octylglucoside/azide).81 μL
(B) Competitor at 16.6 times the final concentration in diluent or diluent alone. 9 μL
(C) Biotinylated RMBP (BRMBP) 90-102; 1.5 nM for DR1 or 4.5 nM for DR4 (These are 5 × stocks of final concentrations of 0.3 nM/DR1 or 0.9 nM/DR4)
(D) 6.25 nM DR1Dw1 or 50 nM DR4Dw4 (these are Drosophila transmembrane DR) (This is a 5× stock of the final concentration of 1.25 or 10 nM.) 30 μL Add the DR last and mix well at this time 150 μL
(2) Incubate at 37° C. for 20 min and 5 hours. […]

The mark [1] stands for this setting: 20 min incubation at 37° C., 0.3 nM biotinylated RMBP 90-102, 1.25 nM DR1Dw1, pH 6.5, read-out: IC50 /μM @ 20'.
Where [2] appears, read: 5 hours incubation at 37° C., 0.3 nM biotinylated RMBP 90-102, 1.25 nM DR1Dw1, pH 6.5, read-out: IC50 /μM @ 5 h.

Turning to “cHx((CH3)CHCH2 CH2 NH)-(R)-γ-Lactam-Nva-Leu-NH2 [Example 12]”, the IC50 runs as follows: under setting [1], 0.65 µM; under setting [2], 5.6 µM.
For “[4H]-Naphthyl-CH2 -(R)-γ-Lactam-Nva-Leu-NH2 [Example 50]”, the IC50 is, setting by setting: under setting [1], 2.5 µM; under setting [2], 23.5 µM.
The like results for “cHp(CH2)3 -α-Propyl-(R)-γ-Lactam-Nva-Leu-NH2 [Example 32]” were, in that order, 0.15 µM and 1.4 µM.
The like results for “cHx((CH3)C=CHCH2)-(R)-γ-Lactam-Nva-Leu-NH2 [Example 11]” were, in that order, 0.76 µM and 5.2 µM.
The corresponding values for “cHx(CH2)3 -α-(3-Aminopropyl)-(R)-γ-Lactam-Nva-NHNBu(COOEt) [Example 53]” are 0.68 µM and 3.1 µM.
With “cHx(CH23 -α-(3-Azidopropyl)-(R)-γ-Lactam-Nva-NHNBu(COOEt) [Example 52]”, the IC50 reads like this: under setting [1], 0.16 µM; under setting [2], 0.62 µM.
The corresponding values for “EtOCO-Phe-(S)-γ-Lactam-Nva-Leu-NH2 [Example 21]” are 3.1 µM and 10.5 µM.
The like results for “cHx(CH2)3 -α-(3-Hydroxypropyl)-(R)-γ-Lactam-Nva-NHNBu(COOEt) [Example 51]” were, in that order, 0.16 µM and 0.63 µM.
The corresponding values for “cHx(CH2)3 -α-propyl-(R)-γ-Lactam-Nva-NHNBu(COOEt) [Example 35]” are 0.25 µM and 2 µM.
Take “EtOCO-Phe-(S)-δ-Lactam-L-Nva-Leu-NH2 [27(61)]”: the IC50 turned out to be 3.4 µM under setting [1] and 10 µM under setting [2].
The corresponding values for “cHp(CH2)3 -(R)-γ-Lactam-Nva-Leu-NH2 [Example 14]” are 0.34 µM and 2.9 µM.
The like results for “cHx(CH2)3 -α-(3-Hydroxypropyl)-(R)-γ-Lactam-Nva-Leu-NH2 [Example 33]” were, in that order, 0.13 µM and 0.86 µM.
The corresponding values for “cHx(CH2)3 -α-(3-guanidinopropyl)-(R)-γ-Lactam-Nva-NHNBu(COOEt) [Example 54]” are 0.21 µM and 0.93 µM.
